{"source": "patent US20080261314A1", "about": "“FLUORESCENT PROBE FOR ZINC” (DAIICHI PURE CHEMICALS CO., LTD., priority 2001, published 2008)", "type_in_all_cases": "physicochemical", "key": {"[1]": {"assay": "Fluorescence characteristics (excitation and emission maxima) before and after addition of zinc ions", "experimental": "Fluorescence characteristics of Compound (11) were studied. Compound (11) was dissolved in 100 mM HEPES buffer (pH 7.4, containing 0.4% DMSO as co-solvent) up to 20 μM and measured excitation spectra.\nHitachi F-4500 fluorescence measurement apparatus\nScanning rate: 240 nm/min\nPhotomultiplier voltage: 950 V\nMeasurement temperature: 25° C.\n(§1) Studies of fluorescence characteristics and the ratio measurements of Compound (14) and (15) were conducted in the same manners as those described in Example 2 and Example 3. Fluorescent characteristics of Compound (14) and (15) before and after addition of zinc ions (20 μM ZnSO4) are shown in the following Table 2."}, "[2]": {"assay": "Ratio measurement of fluorescence intensities at two excitation wavelengths on addition of zinc ions", "conditions": "excitation 335 nm and 354 nm, fluorescence 530 nm; 20 μM compound, ZnSO4 up to 20 μM, HEPES pH 7.4", "experimental": "(§2) To a 20 μM solution of Compound (11) in 100 mM HEPES buffer (pH 7.4), ZnSO4 was added up to 20 μM. Change of the ratio of fluorescence intensities at excitation wavelengths at 335 nm and 354 nm with the fluorescence wavelengths fixed at 530 nm are shown (FIG. 2 (A)). To a 20 μM solution of Compound (11) in 100 mM HEPES buffer (pH 7.4), sodium ions, calcium ions, potassium ions, or magnesium ions were added up to 400 μM. Changes of the ratio of fluorescence intensities at excitation wavelengths at 335 nm and 354 nm with the fluorescence wavelengths fixed at 530 nm are shown (FIG. 2 (B)).\nas §1"}, "[3]": {"assay": "Ratio measurement on addition of ions other than zinc ion (selectivity)", "experimental": "as §2, §1"}, "[4]": {"assay": "Spectrum measurement (UV, excitation and fluorescence spectra) on addition of ZnSO4", "experimental": "To a 15 μM solution of Compound (14) in 100 mM HEPES buffer (pH 7.4), ZnSO4 was added up to 15 μM. Spectra of the solution were measured under the measurement condition described in Example 2. The same spectral measurement was also conducted for Compound (11) as a reference. In FIG. 3, a) UV spectrum change of Compound (14), b) excitation spectra of Compound (14) with fluorescence wavelengths fixed at 495 nm, c) UV spectrum change of Compound (11), and d) excitation spectra of Compound (11) with fluorescence wavelengths fixed at 530 nm are shown. Further, to a 10 μM solution of Compound (15) in 100 mM HEPES buffer (pH 7.4), ZnSO4 was added up to 200 μM. Spectra were measured under the condition described in Example 2."}, "[5]": {"conditions": "20 μM compound, 20 μM ZnSO4, 100 mM HEPES buffer pH 7.4, 25° C."}, "[6]": {"conditions": "20 μM compound, 100 mM HEPES buffer pH 7.4, 0.4% DMSO, 25° C."}}}
{"compound": "COc1cc2cc(-c3ccc(C(=O)O)cc3)oc2cc1NCCN(Cc1ccccn1)Cc1ccccn1", "note": "[Compound (11)]", "values": [{"measurement": "Em(nm), after addition of Zn2+", "setting": "[1]; [5]", "result": 528, "unit": "nm"}, {"measurement": "Ex(nm), after addition of Zn2+", "setting": "[1]; [5]", "result": 335, "unit": "nm"}, {"measurement": "Em(nm), before addition of Zn2+", "setting": "[1]; [6]", "result": 532, "unit": "nm"}, {"measurement": "Ex(nm), before addition of Zn2+", "setting": "[1]; [6]", "result": 354, "unit": "nm"}, {"measurement": "Wavelength shift of the peak of the excitation spectrum on coordination to a zinc ion", "setting": "[1]; blue shift, depending on concentration of zinc ions", "result": "about 20 nm"}, {"measurement": "Change of the ratio of fluorescence intensities on addition of zinc ions", "setting": "[2]", "result": "changed concentration dependent manner of zinc ions"}, {"measurement": "Change of the ratio of fluorescence intensities on addition of sodium, calcium, potassium or magnesium ions", "setting": "[3]; ions added up to 400 μM, 20 μM compound, 100 mM HEPES pH 7.4", "result": "no change of the ratio was observed"}, {"measurement": "Selectivity to zinc ions", "setting": "[3]; versus sodium, calcium, potassium, magnesium ions", "result": "high selectivity to zinc ions"}, {"measurement": "Change of absorbance at 335 nm on addition of zinc ions", "setting": "[4]; 15 μM compound, ZnSO4 up to 15 μM, HEPES pH 7.4", "result": "increases"}, {"measurement": "Change of absorbance at the long-wavelength maximum on addition of zinc ions", "setting": "[4]; 365 nm for Compound (14), 354 nm for Compound (11), 15 μM compound, ZnSO4 up to 15 μM", "result": "decreases"}, {"measurement": "Change of fluorescence excited at the long-wavelength maximum on addition of zinc ions", "setting": "[4]; excited at 365 nm (Compound (14), emission 495 nm) or 354 nm (Compound (11), emission 530 nm)", "result": "decreases"}]}
